From patent US20260042801A1, “COMPOSITIONS AND METHODS FOR DYE-BOUND CYCLIZED PEPTIDES FOR MEDICAL USE” (The Texas A&M University System, priority 2022, published 2026)

Tests used:
Type in all cases: in vivo, mouse
[1] = system: severe T8 contusion/compression SCI; test: Preclinical SCI model: Novel Object Recognition (NOR); conditions: 7 weeks post injury, 24-hr interval
Experimental: 8-week-old male mice with a severe T8 contusion/compression SCI were injected IP daily with 5c(i) for 7 weeks (5 and 25 mg/kg/day). 7 weeks post injury, NOR was conducted. 10A) The total number of independent visits to novel object. 10B) Latency to visit novel object. 10C) The ratio of time spent with objects (novel/familiar ratio). […] N=6-8. Graphs show mean and SEM. # (p<0.1) * (p<0.05) ** (p<0.01) *** (p<0.001) **** (p<0.0001). Student's T-test.
Male mice at 8 weeks of age underwent surgery to sustain an SCI. The spinalis thoracis muscle was lacerated to perform a laminectomy at T7-T9 to expose the spinal cord while keeping the dura intact. The mice were then clamped using 2 pairs of Adson forceps before using the Infinite Horizon Impactor at 50 kdyn of force (the contusion) with a 2 second dwell time (the compression) to induce a severe T8 contusion and compression. Self-degrading Catgut sutures were utilized for the closure of the spinalis thoracis muscle before the skin was glued shut with 3M VETBOND™ (n-butyl cyanoacrylate adhesive veterinary tissue adhesive) Tissue Adhesive. All procedures and instruments used for surgery were sterilized prior to surgery to prevent infections. After surgery, mice recovered in a warmed cage and then moved to a cage set at room temperature provided with food and water ad libitum. All surgeries were performed in the morning (8 am-12 pm) to limit potential circadian clock impact. Behavioral assays were performed at the same time in the morning for all the cohorts for the same reason. For the administration of pharmaceutical agents, the vehicle was 0.6 mL/kg of 100% dimethyl sulfoxide (DMSO). 5c(i) (at 5 and 25 mg/kg/day) diluted in vehicle or vehicle alone was administered once daily through intraperitoneal (IP) injections at a volume of 0.6 mL/kg/day. […]
7 weeks after SCI, all post injury cognitive testing was conducted. Novel Object Recognition (NOR): Mice were placed in the empty open field white box for 5 min and recorded. […] Behavioral patterns with respect to the novel and familiar objects was recorded and analyzed. […]

[2] = system: severe T8 contusion/compression SCI; test: Preclinical SCI model: liver Masson's trichrome collagen deposition; conditions: 7 weeks post injury
Experimental: N=6-8. […] Student's T-test.
Mice were sacrificed 7 weeks after injury by a lethal dose of Fatal plus (pentobarbital), then, transcardial perfusion was performed with PBS-Heparin (10,000 unit/L, 20 mL, 5 mL/min) followed by a 4% paraformaldehyde fixative solution (30 mL/mouse, at 5 mL/min). Right after perfusion, tissues were immersed in 4% PFA for 24 hours, transferred to 15% sucrose for 24 hours, then transferred to 30% sucrose for 24 hours before being embedded. Subsequently, the spinal cords (at injury site±1 mm) were cut into 25 μm-thick transverse sections using a freezing microtome (THERMO FISHER SCIENTIFIC® (laboratory reagents), Microm HM550). […] The images were acquired using VS120 Virtual Slide Microscope (Olympus) and Axio Observer 7 (ZEISS® (optical products)) and analyzed with QuPath 0.4.3. […] The lesion size was measured by tracing the glial scar border labeled with GFAP surrounding a DAPI^+ inner region. Cavity size was measured by measuring the region within the spinal cord without any visible nuclei yet surrounded by GFAP labeled glial scar. Three spinal cord sections per animal were imaged and analyzed. […] Images were quantified using QuPath software. […] Collagen accumulation was quantified using automated QuPath software to determine the extent of fibrosis.

[3] = system: severe T8 contusion/compression SCI; test: Preclinical SCI model: locomotor test (BMS) and survival; conditions: IP daily 5 and 25 mg/kg/day
Experimental: FIG. 8: Timeline of the preclinical in vivo animal study conducted as evidence of claims. Mice underwent baseline cognitive testing and blood collection immediately before SCI. Mice sustained an SCI at 8 weeks of age. SCI model: thoracic-8 contusion (50 kdyne impact) and compression ([…]), a severe contusion/compression model that accurately represents injuries seen in the clinic. 5c(i) (5 or 25 mg/kg/day) or Vehicle were administered IP daily starting 4 hours post injury to reflect the delay found in the clinic. Locomotor behavioral testing (BMS and Rotarod) were conducted weekly for 7 weeks. 7 weeks after injury, the mice underwent cognitive behavioral testing (NOR and Y-maze) and blood collection once again. Mice were euthanized 7 weeks after sustaining an SCI and underwent perfusion and tissue preparations for further analysis.
9A) BMS Score and 9B) BMS Sub Score were recorded and graphed in relation to time after injury. 9C) Percent of mice surviving at 49 days post injury. […] N=6-8. Graphs show mean and SEM. […] Student's T-test.
Open Field Basso Mouse Scale (BMS): Mice were placed in an open field for 5 minutes to allow mice to freely roam to visually evaluate (by 2 individuals) the following parameters: ankle movements, stepping pattern, coordination, paw placement, trunk instability, and tail position. The mice were scored according to the BMS scoring system^59 with a minimum score of 0 (no movement) to a maximum score of 9 (normal locomotion) followed by the BMS Sub score (assessing stepping patterns, tail movement, trunk posture, paw position, and coordination)^12,60. Rotarod: Mice were placed on a rod rotating at increasing speeds from 5 to 45 rotations per minute (rpm) in a 3-minute interval with constant acceleration to assess strength, endurance, and motor coordination^12,60. Mice were first acclimated to the rotarod with 5 habituation sessions the week before injury. Baseline testing was conducted 1 day before injury. […]

Question: With “C-DIRG-C BODIPY® (fluorescent dye) [5c(i)]” as the substance, how does the “latency to visit novel object” value [1] read?
Answer: Its value is “reduced latency to visit”.

Question: And the “preference for the novel object” value [1]?
Answer: The value was “increased preference”.

Question: What about the “visits to novel object” value [1] of the same substance?
Answer: Its value is “more visits”.

Question: What about the liver collagen deposition [2] of the same substance?
Answer: The liver collagen deposition was “alleviated”.

Question: What about the “mice surviving at 49 days post injury” value [3] of the same substance?
Answer: The value was “improves survival”.

Question: What about the “BMS Sub score” value ([3]; 7 weeks) of the same substance?
Answer: The value was “significantly improved”.

Question: And the BMS score ([3]; 7 weeks)?
Answer: The BMS score was “significantly improved”.
